Data as given in ChEMBL document CHEMBL5726776, “3,5-diamino-6-chloro-N-(N-(4-phenylbutyl)carbamimidoyl) pyrazine-2-carboxamide compounds” (2019).
pIC50: −log10 of the molar value.

assay: In Vitro Measure of Sodium Channel Blocking Activity and Reversibility: One assay used to assess mechanism of action and/or potency of the compounds of the present invention involves the determination of lumenal drug inhibition of airway epithelial sodium currents measured under short circuit current (ISC) using airway epithelial monolayers mounted in Using chambers. This assay is described in detail in Hirsh, A. J., Zhang, J., Zamurs, A., et al. Pharmacological properties of N-(3,5-diamino-6-chloropyrazine-2-carbonyl)-N′-4-[4-(2,3-dihydroxypropoxy)phenyl]butyl-guanidine methanesulfonate (552-02), a novel epithelial sodium channel blocker with potential clinical efficacy for CF lung disease. J. Pharmacol. Exp. Ther. 2008; 325(1): 77-88. Cells obtained from freshly excised human, dog, sheep or rodent airways are seeded onto porous 0.4 micron Snapwell™ Inserts (CoStar), cultured at air-liquid interface (ALI) conditions in hormonally defined media, and assayed for sodium transport activity (ISC) while bathed in Krebs Bicarbonate Ringer (KBR) in Using chambers. All test drug additions are to the lumenal bath with half-log dose addition protocols (from 1×10−11 M to 3×10−5 M), and the cumulative change in ISC (inhibition) recorded. All drugs are prepared in dimethyl sulfoxide as stock solutions at a concentration of 1×10−2 M and stored at −20° C. […] After the maximal concentration ([…]) is administered, the lumenal bath is exchanged three times with fresh drug-free KBR solution, and the resultant ISC measured after each wash for approximately 5 minutes in duration. Reversibility is defined as the percent return to the baseline value for sodium current after the third wash. All data from the voltage clamps are collected via a computer interface and analyzed off-line.Dose-effect relationships for all compounds are considered and analyzed by the Prism 3.0 program.

Row | Structure (SMILES) | pIC50
1 | N=C(NCCCCc1ccc2cc(C[C@H](NCCCN(C[C@H](O)[C@@H](O)[C@H](O)[C@H](O)CO)C[C@H](O)[C@@H](O)[C@H](O)[C@H](O)CO)C(N)=O)ccc2c1)NC(=O)c1nc(Cl)c(N)nc1N | 7.56
2 | N=C(NCCCCc1ccc(C[C@H](NCCCN(C[C@H](O)[C@@H](O)[C@H](O)[C@H](O)CO)C[C@H](O)[C@@H](O)[C@H](O)[C@H](O)CO)C(N)=O)c2ccccc12)NC(=O)c1nc(Cl)c(N)nc1N | 7.39
3 | N=C(NCCCCc1ccc2cc(CC[C@H](NCCCN(C[C@H](O)[C@@H](O)[C@H](O)[C@H](O)CO)C[C@H](O)[C@@H](O)[C@H](O)[C@H](O)CO)C(N)=O)ccc2c1)NC(=O)c1nc(Cl)c(N)nc1N | 7.90
4 | N=C(NCCCCc1ccc(CC[C@H](NCCCN(C[C@H](O)[C@@H](O)[C@H](O)[C@H](O)CO)C[C@H](O)[C@@H](O)[C@H](O)[C@H](O)CO)C(N)=O)c2c1CCCC2)NC(=O)c1nc(Cl)c(N)nc1N | 8.14
5 | N=C(NCCCCc1ccc(CC[C@H](NCCCN(C[C@H](O)[C@@H](O)[C@H](O)[C@H](O)CO)C[C@H](O)[C@@H](O)[C@H](O)[C@H](O)CO)C(N)=O)c2ccccc12)NC(=O)c1nc(Cl)c(N)nc1N | 7.62
6 | CCCCCCN(CCCN[C@@H](Cc1ccc(CCCCNC(=N)NC(=O)c2nc(Cl)c(N)nc2N)c2ccccc12)C(N)=O)C[C@H](O)[C@@H](O)[C@H](O)[C@H](O)CO | 8.06
7 | CCCCCCN(CCCN[C@@H](Cc1ccc(CCCCNC(=N)NC(=O)c2nc(Cl)c(N)nc2N)c2c1CCCC2)C(N)=O)C[C@H](O)[C@@H](O)[C@H](O)[C@H](O)CO | 8.08
8 | N=C(NCCCCc1ccc(CC[C@H](NCCCN(C[C@H](O)[C@@H](O)[C@H](O)[C@H](O)CO)C[C@H](O)[C@@H](O)[C@H](O)[C@H](O)CO)C(N)=O)cc1)NC(=O)c1nc(Cl)c(N)nc1N | 7.97
9 | CCCCCCN(CCCN[C@@H](CCc1ccc(CCCCNC(=N)NC(=O)c2nc(Cl)c(N)nc2N)c2ccccc12)C(N)=O)C[C@H](O)[C@@H](O)[C@H](O)[C@H](O)CO | 7.84
10 | CCCCCCN(CCCN[C@@H](Cc1ccc(CCCCNC(=N)NC(=O)c2nc(Cl)c(N)nc2N)cc1)C(N)=O)C[C@H](O)[C@@H](O)[C@H](O)[C@H](O)CO | 8.54
11 | N=C(NCCCCc1ccc(C[C@H](NCCCN(C[C@H](O)[C@@H](O)[C@H](O)[C@H](O)CO)C[C@H](O)[C@@H](O)[C@H](O)[C@H](O)CO)C(N)=O)cc1)NC(=O)c1nc(Cl)c(N)nc1N | 7.45
12 | CCCCCCN(CCCN[C@@H](Cc1ccc2cc(CCCCNC(=N)NC(=O)c3nc(Cl)c(N)nc3N)ccc2c1)C(N)=O)C[C@H](O)[C@@H](O)[C@H](O)[C@H](O)CO | 7.95
13 | CCCCCCN(CCCN[C@@H](CCc1ccc(CCCCNC(=N)NC(=O)c2nc(Cl)c(N)nc2N)cc1)C(N)=O)C[C@H](O)[C@@H](O)[C@H](O)[C@H](O)CO | 8.59
14 | N=C(NCCCCc1ccc(C[C@H](NCCCN(C[C@H](O)[C@@H](O)[C@H](O)[C@H](O)CO)C[C@H](O)[C@@H](O)[C@H](O)[C@H](O)CO)C(N)=O)c2c1CCCC2)NC(=O)c1nc(Cl)c(N)nc1N | 8.26
15 | CCCCCCN(CCCN[C@@H](CCc1ccc2cc(CCCCNC(=N)NC(=O)c3nc(Cl)c(N)nc3N)ccc2c1)C(N)=O)C[C@H](O)[C@@H](O)[C@H](O)[C@H](O)CO | 8.22
